Experimental data published in patent US4287206A, “Halogen derivatives of 8-hydroxycarboxylic acids; the processes for their preparation and medicaments in which they are present” (priority 1978, dated 1981).

Columns and labels:
mice [1] = assay: Interaction with barbital sodium (sleep induced by barbital sodium in mice); assay type: in vivo; settings: barbital sodium 180 mg.kg^-1 i.p.
Procedure: Interaction with barbital sodium
At time 0, the mice receive, by intraperitoneal or oral administration, distilled water or the medicament according to the invention. After 30 minutes, they receive barbital sodium (180 mg.kg^-1) by intraperitoneal administration.

mice [2] = assay: Anti-reserpine activity in mice (reserpine hypothermia); assay type: in vivo; settings: reserpine 2.5 mg.kg^-1 i.p. 4 h before
Procedure: Anti-reserpine activity in mice
At time 0, the mice receive reserpine (2.5 mg.kg^-1) by intraperitoneal administration.
After 4 hours, when the hypothermia is significant (30 to 31°C.), the substance to be studied is administered intraperitoneally or orally. The rectal temperature is measured, using a probe, carrying a thermoelectric couple, inserted to a constant depth, every 30 minutes for 2 hours.

In the case of `CC1CC(c2ccc(Cl)cc2)C(c2ccccc2)C(=O)O1` (stereo not drawn) [Example I, trans-4-(4'-chlorophenyl)-6-methyl-3-phenyl-3,4,5,6-tetrahydropyrone-2], the “% of mice which have slept” value (mice [1]; 2 mg/kg intraperitoneal) is reported as 100%, the “Time in minutes for induction of sleep” value (mice [1]; 2 mg/kg intraperitoneal) is reported as 27 min and the “Time in minutes of sleep” value (mice [1]; 2 mg/kg intraperitoneal) is reported as 67 ± 16 min. For the same molecule, the “% of mice which have slept” value (mice [1]; 2 mg/kg oral) was 83%, the “Time in minutes for induction of sleep” value (mice [1]; 2 mg/kg oral) was 25 min and the “Time in minutes of sleep” value (mice [1]; 2 mg/kg oral) was 47 ± 15 min. The “% of mice which have slept” value (mice [1]; 4 mg/kg intraperitoneal) was 83%, the “Time in minutes for induction of sleep” value (mice [1]; 4 mg/kg intraperitoneal) was 22 min and the “Time in minutes of sleep” value (mice [1]; 4 mg/kg intraperitoneal) was 37 ± 13 min. The “% of mice which have slept” value (mice [1]; 4 mg/kg oral) was 25%, the “Time in minutes for induction of sleep” value (mice [1]; 4 mg/kg oral) was 33 min and the “Time in minutes of sleep” value (mice [1]; 4 mg/kg oral) was 56 min. The “% of mice which have slept” value (mice [1]; 8 mg/kg intraperitoneal) was 83%, the “Time in minutes for induction of sleep” value (mice [1]; 8 mg/kg intraperitoneal) was 30 min and the “Time in minutes of sleep” value (mice [1]; 8 mg/kg intraperitoneal) was 25 ± 4 min. The “% of mice which have slept” value (mice [1]; 8 mg/kg oral) was 42%, the “Time in minutes for induction of sleep” value (mice [1]; 8 mg/kg oral) was 32 min and the “Time in minutes of sleep” value (mice [1]; 8 mg/kg oral) was 43 min. For the same molecule, the “% of mice which have slept” value (mice [1]; 16 mg/kg intraperitoneal) was 33%, the “Time in minutes for induction of sleep” value (mice [1]; 16 mg/kg intraperitoneal) was 38 min and the “Time in minutes of sleep” value (mice [1]; 16 mg/kg intraperitoneal) was 14 min. For the same molecule, the “% of mice which have slept” value (mice [1]; 16 mg/kg oral) was 0%, the “Time in minutes for induction of sleep” value (mice [1]; 16 mg/kg oral) was 0 min and the “Time in minutes of sleep” value (mice [1]; 16 mg/kg oral) was 0 min. The “% of mice which have slept” value (mice [1]; 32 mg/kg intraperitoneal) was 0%, the “Time in minutes for induction of sleep” value (mice [1]; 32 mg/kg intraperitoneal) was 0 min and the “Time in minutes of sleep” value (mice [1]; 32 mg/kg intraperitoneal) was 0 min. The “% of mice which have slept” value (mice [1]; 32 mg/kg oral) was 00%, the “Time in minutes for induction of sleep” value (mice [1]; 32 mg/kg oral) was 0 min and the “Time in minutes of sleep” value (mice [1]; 32 mg/kg oral) was 0 min. For the same molecule, the “Rectal temperatures °C. ± SD” value (mice [2]; Table IIa, 4 mg/kg oral, 30 min) was 30.6 ± 0.39 °C, the “Rectal temperatures °C. ± SD” value (mice [2]; Table IIa, 4 mg/kg oral, 60 min) was 30.6 ± 0.45 °C and the “Rectal temperatures °C. ± SD” value (mice [2]; Table IIa, 4 mg/kg oral, 90 min) was 30.7 ± 0.59 °C. The “Rectal temperatures °C. ± SD” value (mice [2]; Table IIa, 4 mg/kg oral, 120 min) was 30.4 ± 0.67 °C, the “Rectal temperatures °C. ± SD” value (mice [2]; Table IIa, 8 mg/kg oral, 30 min) was 31.1 ± 0.36 °C and the “Rectal temperatures °C. ± SD” value (mice [2]; Table IIa, 8 mg/kg oral, 60 min) was 31.4 ± 0.56 °C. For the same molecule, the “Rectal temperatures °C. ± SD” value (mice [2]; Table IIa, 8 mg/kg oral, 90 min) was 31.5 ± 0.57 °C, the “Rectal temperatures °C. ± SD” value (mice [2]; Table IIa, 8 mg/kg oral, 120 min) was 31.3 ± 0.56 °C and the “Rectal temperatures °C. ± SD” value (mice [2]; Table IIa, 16 mg/kg oral, 30 min) was 31.4 ± 0.41 °C. For the same molecule, the “Rectal temperatures °C. ± SD” value (mice [2]; Table IIa, 16 mg/kg oral, 60 min) was 32.6 ± 0.56 °C, the “Rectal temperatures °C. ± SD” value (mice [2]; Table IIa, 16 mg/kg oral, 90 min) was 32.8 ± 0.53 °C and the “Rectal temperatures °C. ± SD” value (mice [2]; Table IIa, 16 mg/kg oral, 120 min) was 32.8 ± 0.45 °C. For the same molecule, the “Rectal temperatures °C. ± SD” value (mice [2]; Table IIa, 32 mg/kg oral, 30 min) was 31.4 ± 0.31 °C, the “Rectal temperatures °C. ± SD” value (mice [2]; Table IIa, 32 mg/kg oral, 60 min) was 32.6 ± 0.44 °C and the “Rectal temperatures °C. ± SD” value (mice [2]; Table IIa, 32 mg/kg oral, 90 min) was 32.9 ± 0.41 °C. For the same molecule, the “Rectal temperatures °C. ± SD” value (mice [2]; Table IIa, 32 mg/kg oral, 120 min) was 32.8 ± 0.38 °C, the “Rectal temperatures °C. ± SD” value (mice [2]; Table IIa, 64 mg/kg oral, 30 min) was 33.8 ± 0.58 °C and the “Rectal temperatures °C. ± SD” value (mice [2]; Table IIa, 64 mg/kg oral, 60 min) was 34.5 ± 0.33 °C. For the same molecule, the “Rectal temperatures °C. ± SD” value (mice [2]; Table IIa, 64 mg/kg oral, 90 min) was 34.4 ± 0.39 °C, the “Rectal temperatures °C. ± SD” value (mice [2]; Table IIa, 64 mg/kg oral, 120 min) was 34.4 ± 0.35 °C and the “Rectal temperatures °C. ± SD” value (mice [2]; Table IIa, 128 mg/kg oral, 30 min) was 33.1 ± 0.56 °C. The “Rectal temperatures °C. ± SD” value (mice [2]; Table IIa, 128 mg/kg oral, 60 min) was 34.1 ± 0.56 °C, the “Rectal temperatures °C. ± SD” value (mice [2]; Table IIa, 128 mg/kg oral, 90 min) was 34.3 ± 0.58 °C and the “Rectal temperatures °C. ± SD” value (mice [2]; Table IIa, 128 mg/kg oral, 120 min) was 34.2 ± 0.53 °C. The “Rectal temperatures °C. ± SD” value (mice [2]; Table IIa, 256 mg/kg oral, 30 min) was 33.5 ± 0.47 °C, the “Rectal temperatures °C. ± SD” value (mice [2]; Table IIa, 256 mg/kg oral, 60 min) was 35.2 ± 0.15 °C and the “Rectal temperatures °C. ± SD” value (mice [2]; Table IIa, 256 mg/kg oral, 90 min) was 35.3 ± 0.34 °C. The “Rectal temperatures °C. ± SD” value (mice [2]; Table IIa, 256 mg/kg oral, 120 min) was 35.1 ± 0.33 °C, the “Rectal temperatures °C. ± SD” value (mice [2]; 4 mg/kg intraperitoneal, 30 min) was 32.7 ± 0.56 °C and the “Rectal temperatures °C. ± SD” value (mice [2]; 4 mg/kg intraperitoneal, 60 min) was 33.7 ± 0.47 °C. The “Rectal temperatures °C. ± SD” value (mice [2]; 4 mg/kg intraperitoneal, 90 min) was 33.1 ± 0.39 °C, the “Rectal temperatures °C. ± SD” value (mice [2]; 4 mg/kg intraperitoneal, 120 min) was 32.2 ± 0.46 °C and the “Rectal temperatures °C. ± SD” value (mice [2]; 8 mg/kg intraperitoneal, 30 min) was 33.1 ± 0.32 °C. For the same molecule, the “Rectal temperatures °C. ± SD” value (mice [2]; 8 mg/kg intraperitoneal, 60 min) was 34.1 ± 0.24 °C, the “Rectal temperatures °C. ± SD” value (mice [2]; 8 mg/kg intraperitoneal, 90 min) was 34.0 ± 0.38 °C and the “Rectal temperatures °C. ± SD” value (mice [2]; 8 mg/kg intraperitoneal, 120 min) was 33.6 ± 0.49 °C. For the same molecule, the “Rectal temperatures °C. ± SD” value (mice [2]; 16 mg/kg intraperitoneal, 30 min) was 35.3 ± 0.51 °C.
